Source: publication PMC11424460, “Inhibitory effects of calcium channel blockers nisoldipine and nimodipine on ivacaftor metabolism and their underlying mechanism” (Frontiers in Pharmacology, 2024)

Experiments:
[1] = system: human liver microsomes (HLM); details: read-out: Km (Michaelis-Menten constant); HLM 0.4 mg/mL, 40 min incubation
Description: (§1) This system was made up of 200 μL of incubation solution consisting of 0.3 mg/mL RLM or 0.4 mg/mL HLM, 1.0 mM NADPH, pH 7.4 PBS and ivacaftor. […] In HLM, a range of concentrations (0.1, 1, 2, 4, 12, 25 μM) of ivacaftor was used to determine Km. The solution should be pre-incubated at 37°C for 5 min before adding NADPH. Following the addition of NADPH, the mixture should be incubated for 40 min. The reaction should then be stopped at −80°C. After the enzyme reaction was completed, 20 μL of 500 ng/mL IS solution and 400 μL acetonitrile (protein precipitating agent) were added to the mixture. The mixture was vortexed for 2 min and then centrifuged at 13,000 rpm for 10 min. After centrifugation, 100 μL of the supernatant was quantified using UPLC-MS/MS.
(§2) Km values, IC50 values, Lineweaver-Burk plots and mean plasma concentration-time curves were all generated using GraphPad Prism 9.0 software (GraphPad Software, Inc., United States). Pharmacokinetic parameters of ivacaftor and M1 were obtained by analyzing them using the non-compartmental model of Drug and Statistics (DAS) (version 3.0, Mathematical Pharmacology Professional Committee of China, Shanghai, China), and a one-way ANOVA was performed to compare the pharmacokinetics of the three groups of rats using SPSS (version 26.0; SPSS Inc., Chicago, IL, United States). A P-value <0.05 was considered statistically significant. […]

[2] = system: rat liver microsomes (RLM); details: read-out: Km (Michaelis-Menten constant); RLM 0.3 mg/mL, 40 min incubation
Description: as §1, §2

[3] = Pharmacokinetics of ivacaftor and M1 in Sprague-Dawley rats with or without nisoldipine or nimodipine; format: in vivo; details: male, rat, plasma, po, ivacaftor 10 mg/kg gavage, nisoldipine 1 mg/kg or nimodipine 10 mg/kg 30 min before
Description: The animal study was supervised and approved by Ethics Committee of The First Affiliated Hospital of Wenzhou Medical University (WYYY-IACUC-AEC-2023-065). 12 Sprague-Dawley male rats (220 ± 20 g) were purchased from the First Affiliated Hospital of Wenzhou Medical University and randomly divided into three groups: group A (control), group B (nisoldipine), and group C (nimodipine), with 4 rats in each group. A 12 h fast with no restriction on water intake was conducted prior to the experiment. […] Group B were received nisoldipine (1 mg/kg) via gavage, while group C were received nimodipine (10 mg/kg) via the same method. Group A were given the same volume of CMC-Na to serve as a control. […] Before UPLC-MS/MS analysis, supernatant was mixed with 300 μL acetonitrile and 10 μL IS (500 ng/mL), and then vortexed for 2 min and centrifuged at 13,000 rpm for 10 min at 4°C. Finally, a 100 μL sample of supernatant was collected for UPLC-MS/MS analysis. […] SPSS Inc., Chicago, IL, United States). […] Data were represented as mean ± standard deviation (SD).

[4] = set-up: method as in Schneider et al., 2015; details: ref Schneider et al., 2015; cited from earlier work
[5] = set-up: method as in Harbeson et al., 2017; details: male rats, gavage of 10 mg/kg ivacaftor alone, PEG400 as solvent; ref Harbeson et al., 2017; cited from earlier work

Km [1]: 6.8 µM
Km [2]: 8.8 µM
AUC(0-inf) ([3]; n = 4): 9360 ng·h/mL
AUC(0-t) ([3]; n = 4): 8410 ng·h/mL
Cmax ([3]; n = 4): 676 ± 242 ng/mL
CL/F ([3]; n = 4, read-out: CLz/F of ivacaftor (converted)): 18.2 mL/min/kg
half-life ([3]; n = 4, read-out: t1/2 of ivacaftor (converted)): 12.2 ± 4.8 h
Compound: CC(C)(C)c1cc(C(C)(C)C)c(NC(=O)c2c[nH]c3ccccc3c2=O)cc1O [Ivacaftor, N-(2,4-Di-tert-butyl-5-hydroxyphenyl)-4-oxo-1,4-dihydroquinoline-3-carboxamide]
plasma protein binding [4]: > 97%
AUC(0–24h) of ivacaftor [5]: 22,177 ng/mL*h
